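Step 1: Grow cells in 96-well plates. Step 2: Expose to compound for 48 hours at 5 concentrations. Step 3: Interpolate endpoints linearly; if unreached, use highest concentration. TGI marks complete inhibition of growth.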 Where a SMILES comes first, the peptide text is derived from it. [ ]: non-standard residue; d: D form. pGlu = O=C1CC[CH](C(=O)O)N1
Legend:
Test in all cases: growth of human tumour cells (NCI), 48 h
A549 NSCLC = test system: A549 NSCLC
HCT-116 colon = test system: HCT-116 colon
HT29 colon = test system: HT29 colon
NCI-H226 lung = test system: NCI-H226 lung
NCI-H23 lung = test system: NCI-H23 lung
NCI-H522 lung = test system: NCI-H522 lung
NCI/ADR-RES ovarian = test system: NCI/ADR-RES ovarian
SW-620 colon = test system: SW-620 colon
UO-31 renal = test system: UO-31 renal
RXF 393 renal = test system: RXF 393 renal

Compound | TGI (A549 NSCLC) | TGI (HCT-116 colon) | TGI (HT29 colon) | TGI (NCI-H226 lung) | TGI (NCI-H23 lung) | TGI (NCI-H522 lung) | TGI (NCI/ADR-RES ovarian) | TGI (SW-620 colon) | TGI (UO-31 renal) | TGI (RXF 393 renal)
COc1ccc(/C=N\NC(=O)Nc2cccc3ccccc23)cc1 | > 100 µM | > 100 µM | > 100 µM | 83.7 µM | > 100 µM | > 100 µM | > 100 µM | > 100 µM | > 100 µM | –
COc1nc2ccc(CNc3ccc(C(=O)O)cc3)cc2nc1OC | > 10 µM | > 10 µM | > 10 µM | > 10 µM | > 10 µM | > 10 µM | > 10 µM | > 10 µM | – | > 10 µM
NC(=O)CCC(NC(=O)c1cccc2c(=O)c3ccccc3[nH]c12)C(=O)O (stereo unspecified) | > 100 µM | > 100 µM | > 100 µM | > 100 µM | > 100 µM | > 100 µM | > 100 µM | > 100 µM | > 100 µM | –
O=C1C2=C(CCCCC2)C2CCCCC12O (stereo unspecified) | > 100 µM | > 100 µM | > 100 µM | > 100 µM | > 100 µM | > 100 µM | – | > 100 µM | > 100 µM | > 100 µM
COc1cc2cc3c4c(cc(OC)c(OC)c4c2cc1OC)CCN3C(=O)N(C)C | > 100 µM | > 100 µM | > 100 µM | > 100 µM | > 10 µM | > 100 µM | – | > 100 µM | > 100 µM | > 100 µM
COc1ccc(/C(Cl)=C(\C=O)c2ccccc2)cc1OC | > 100 µM | > 100 µM | > 100 µM | 82.2 µM | > 100 µM | 30.8 µM | – | > 100 µM | > 100 µM | 69 µM
Clc1cc(OCC23CC4CC(CC(C4)C2)C3)nc(OCC23CC4CC(CC(C4)C2)C3)n1 | > 100 µM | > 100 µM | > 100 µM | – | > 100 µM | > 100 µM | > 100 µM | > 100 µM | > 100 µM | > 100 µM
COc1ccc(-c2nnc(CCCCCCCCc3nnc(-c4ccc(OC)cc4)n3N)n2N)cc1 | > 100 µM | > 100 µM | > 100 µM | > 100 µM | > 100 µM | > 100 µM | > 31.6 µM | > 100 µM | > 100 µM | –
CC(NC(=O)C(Cc1cnc[nH]1)NC(=O)C1CCC(=O)N1)C(N)=O (stereo not drawn) ([pGlu]-His-Ala-NH2; configuration not given here) | > 100 µM | > 100 µM | > 100 µM | > 100 µM | > 100 µM | – | – | > 100 µM | > 100 µM | > 100 µM
N#Cc1ccc(Nc2cnc3ccc(N)cc3n2)cc1 | > 100 µM | > 100 µM | > 100 µM | > 100 µM | > 100 µM | > 100 µM | – | > 100 µM | > 100 µM | > 100 µM
COc1ccc(-c2nnc(-c3c(C)n(C)n(-c4ccccc4)c3=O)o2)cc1 | > 100 µM | > 100 µM | > 100 µM | > 100 µM | > 100 µM | > 100 µM | – | > 100 µM | > 100 µM | > 100 µM
Cc1cc2c(c(C(=O)NCCC(=O)N[C@@H](C)C(=O)OCc3ccccc3)c1)Oc1c(cc(C)cc1C(=O)NCCC(=O)N[C@@H](C)C(=O)OCc1ccccc1)S2 | > 100 µM | > 100 µM | > 100 µM | > 100 µM | > 100 µM | – | > 100 µM | > 100 µM | > 100 µM | > 100 µM
CC1(C)O[C@H]2OC(CO)C(OS(C)(=O)=O)[C@H]2O1 (stereo partly specified) | > 100 µM | > 100 µM | > 100 µM | – | > 100 µM | > 100 µM | > 100 µM | > 100 µM | > 100 µM | –
COc1ccc2c(c1)CC1(O)COc3cc(OC)ccc3C1O2 (stereo unspecified) | > 100 µM | > 100 µM | > 100 µM | > 100 µM | > 100 µM | > 100 µM | > 100 µM | > 100 µM | > 100 µM | –
COc1ccc(N=N/C(=N/NC(=O)c2cc(Cl)ccc2C(=O)c2ccccc2)c2ccc(N(CCC#N)CCC#N)cc2C)cc1 | > 100 µM | 33.5 µM | 60.8 µM | 66.3 µM | 61.9 µM | – | 59.1 µM | > 100 µM | 79.3 µM | 30.4 µM
CCCCCCCC(=O)OCC(C[As](=O)(O)O)OC(=O)CCCCCCC (stereo unspecified) | 53.3 µM | 30.3 µM | 33.4 µM | 37.5 µM | 28.7 µM | 26.6 µM | – | 29.1 µM | 28.2 µM | 18.2 µM
CN(C)CCCNc1cnc2cc3ccccc3cc2n1 | > 100 µM | 99.3 µM | 30.5 µM | 40.6 µM | > 100 µM | 55.5 µM | – | > 100 µM | – | 50.2 µM
Cc1ccc(S(=O)(=O)C2c3nc4ccccc4cc3-c3nc4ccccc4nc32)cc1 (stereo unspecified) | > 100 µM | > 100 µM | – | – | > 100 µM | > 100 µM | – | > 100 µM | > 100 µM | –
CC1(C)OCC(COC(=O)NCn2cc(-c3ccccc3)nn2)O1 (stereo unspecified) | > 100 µM | > 100 µM | > 100 µM | > 100 µM | > 100 µM | > 100 µM | > 100 µM | > 100 µM | – | –
N#CCOc1cccc(C2(N3CC=CCC3)CCCCC2)c1 | > 100 µM | > 100 µM | > 100 µM | > 100 µM | > 100 µM | > 100 µM | > 100 µM | > 100 µM | > 100 µM | –
CCCCNC(=S)c1ccc(OC(=O)Nc2ccc(Cl)cc2)cc1 | > 100 µM | > 100 µM | > 100 µM | – | > 100 µM | > 100 µM | > 100 µM | > 100 µM | > 100 µM | –
CCOC(=O)C1=CC(C)(C(=O)OCC)Nc2c(nc(SC)n(C)c2=O)N1 (stereo unspecified) | > 10 µM | > 10 µM | > 10 µM | > 10 µM | > 10 µM | > 10 µM | > 10 µM | > 10 µM | > 10 µM | –
Cc1c(O)c(=O)ccn1CCc1c[nH]c2ccccc12 | > 100 µM | > 100 µM | 32.7 µM | – | > 100 µM | – | 35.6 µM | > 100 µM | – | –

— PubChem BioAssay (NCI)
